Reference: PubChem BioAssay (NCI)
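These data come from cells grown in 96-well plates and exposed to compound for 48 hours at five concentrations. GI50: concentration for 50% inhibition of growth. TGI: total growth inhibition.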

Experiments:
Experiment in all cases: inhibition of tumour cell growth, NCI panel, 48 h
HS 578T breast = system: HS 578T breast
SR leukemia = system: SR leukemia
CCRF-CEM leukemia = system: CCRF-CEM leukemia
MDA-MB-435 = system: MDA-MB-435
HCT-116 colon = system: HCT-116 colon
NCI-H460 lung = system: NCI-H460 lung
SK-MEL-2 melanoma = system: SK-MEL-2 melanoma
KM12 colon = system: KM12 colon
COLO 205 colon = system: COLO 205 colon
U251 CNS = system: U251 CNS
UO-31 renal = system: UO-31 renal
SW-620 colon = system: SW-620 colon
OVCAR-5 ovarian = system: OVCAR-5 ovarian
SK-MEL-28 melanoma = system: SK-MEL-28 melanoma
A549 NSCLC = system: A549 NSCLC
EKVX NSCLC = system: EKVX NSCLC
MCF7 breast = system: MCF7 breast
NCI-H23 lung = system: NCI-H23 lung
HCT-15 colon = system: HCT-15 colon
OVCAR-4 ovarian = system: OVCAR-4 ovarian
UACC-257 melanoma = system: UACC-257 melanoma
HOP-62 NSCLC = system: HOP-62 NSCLC
UACC-62 melanoma = system: UACC-62 melanoma
MDA-MB-231 breast = system: MDA-MB-231 breast
786-0 renal = system: 786-0 renal
RXF 393 renal = system: RXF 393 renal
SK-OV-3 ovarian = system: SK-OV-3 ovarian
MALME-3M melanoma = system: MALME-3M melanoma
HT29 colon = system: HT29 colon
HOP-92 NSCLC = system: HOP-92 NSCLC
A498 renal = system: A498 renal
SK-MEL-5 melanoma = system: SK-MEL-5 melanoma
M14 melanoma = system: M14 melanoma
IGROV1 ovarian = system: IGROV1 ovarian
PC-3 prostate = system: PC-3 prostate
RPMI-8226 leukemia = system: RPMI-8226 leukemia
NCI-H522 lung = system: NCI-H522 lung
SF-295 CNS = system: SF-295 CNS
SNB-19 CNS = system: SNB-19 CNS
DU-145 prostate = system: DU-145 prostate
OVCAR-3 ovarian = system: OVCAR-3 ovarian
HCC-2998 colon = system: HCC-2998 colon
CAKI-1 renal = system: CAKI-1 renal
MOLT-4 leukemia = system: MOLT-4 leukemia
ACHN renal = system: ACHN renal
NCI/ADR-RES ovarian = system: NCI/ADR-RES ovarian
K-562 leukemia = system: K-562 leukemia
SN12C renal = system: SN12C renal

C[C@@H]1OC(=O)C[C@H]2CC(=O)N(CCC3CN(S(=O)(=O)C(F)(F)F)c4ccccc43)C[C@@H]21 (some centres undefined)
TGI (HS 578T breast): > 100 µM | TGI (SR leukemia): > 100 µM | TGI (CCRF-CEM leukemia): > 100 µM | TGI (MDA-MB-435): > 100 µM | TGI (HCT-116 colon): > 100 µM | TGI (NCI-H460 lung): > 100 µM | TGI (SK-MEL-2 melanoma): > 100 µM | TGI (KM12 colon): > 100 µM | TGI (COLO 205 colon): > 100 µM | TGI (U251 CNS): > 100 µM | TGI (UO-31 renal): > 100 µM | TGI (SW-620 colon): > 100 µM | TGI (OVCAR-5 ovarian): > 100 µM | TGI (SK-MEL-28 melanoma): > 100 µM | TGI (A549 NSCLC): > 100 µM | TGI (EKVX NSCLC): > 100 µM | TGI (MCF7 breast): > 100 µM | TGI (NCI-H23 lung): > 100 µM | TGI (HCT-15 colon): > 100 µM | TGI (OVCAR-4 ovarian): > 100 µM | TGI (UACC-257 melanoma): > 100 µM | TGI (HOP-62 NSCLC): > 100 µM | TGI (UACC-62 melanoma): > 100 µM | TGI (MDA-MB-231 breast): > 100 µM | TGI (786-0 renal): > 100 µM | TGI (RXF 393 renal): > 100 µM | TGI (SK-OV-3 ovarian): > 100 µM | TGI (MALME-3M melanoma): > 100 µM | TGI (HT29 colon): > 100 µM | TGI (HOP-92 NSCLC): > 100 µM | TGI (A498 renal): > 100 µM | TGI (SK-MEL-5 melanoma): > 100 µM | TGI (M14 melanoma): > 100 µM | TGI (IGROV1 ovarian): > 100 µM | TGI (PC-3 prostate): > 100 µM | TGI (RPMI-8226 leukemia): > 100 µM | TGI (NCI-H522 lung): > 100 µM | TGI (SF-295 CNS): > 100 µM | TGI (SNB-19 CNS): > 100 µM | TGI (DU-145 prostate): > 100 µM | TGI (OVCAR-3 ovarian): > 100 µM | TGI (HCC-2998 colon): > 100 µM | TGI (CAKI-1 renal): > 100 µM | TGI (MOLT-4 leukemia): > 100 µM | TGI (ACHN renal): > 100000 nM | TGI (NCI/ADR-RES ovarian): > 100 µM | TGI (K-562 leukemia): > 100 µM

COc1cc(/C=C2\CN(S(=O)(=O)c3ccccc3)C/C(=C\c3cc(CN4CCCCC4)c(O)c(OC)c3)C2=O)cc(CN2CCCCC2)c1O
GI50 (HS 578T breast): 1630 nM | TGI (HS 578T breast): 4.31 µM | GI50 (CCRF-CEM leukemia): 2620 nM | TGI (CCRF-CEM leukemia): 7.25 µM | GI50 (KM12 colon): 1730 nM | TGI (KM12 colon): 3.41 µM | GI50 (HCT-15 colon): 1790 nM | TGI (HCT-15 colon): 3.78 µM | GI50 (UACC-62 melanoma): 1650 nM | TGI (UACC-62 melanoma): 3.44 µM | GI50 (MDA-MB-231 breast): 1770 nM | TGI (MDA-MB-231 breast): 3.47 µM | GI50 (SK-OV-3 ovarian): 1930 nM | TGI (SK-OV-3 ovarian): 3.85 µM | GI50 (MALME-3M melanoma): 1740 nM | TGI (MALME-3M melanoma): 3.39 µM | GI50 (PC-3 prostate): 1730 nM | TGI (PC-3 prostate): 3.4 µM | GI50 (RPMI-8226 leukemia): 2290 nM | TGI (RPMI-8226 leukemia): 5.11 µM | GI50 (SN12C renal): 1830 nM | TGI (SN12C renal): 3.63 µM | GI50 (SF-295 CNS): 2250 nM | TGI (SF-295 CNS): 5.01 µM | GI50 (SNB-19 CNS): 2000 nM | TGI (SNB-19 CNS): 4.58 µM | GI50 (DU-145 prostate): 1730 nM | TGI (DU-145 prostate): 3.19 µM | GI50 (OVCAR-3 ovarian): 1720 nM | TGI (OVCAR-3 ovarian): 3.25 µM | GI50 (ACHN renal): 1540 nM | TGI (ACHN renal): 2930 nM
